# Source: patent publication US11478460B2, “Diaryl substituted 6,5-fused ring compounds as C5aR inhibitors” (CHEMOCENTRYX, INC., priority 2017, dated 2022)
# Target: C5aR (Homo sapiens (Human), UniProt P21730)
# Test: Chemotaxis assay using U937 cells (C5aR mediated migration)
# Assay type: cell-based
# Conditions: read-out: Mig IC50
# Procedure: U937 cells are a monocytic cell line which express C5aR, and are available from ATCC (VA). These cells were cultured as a suspension in RPMI-1640 medium supplemented with 2 mM L-glutamine, 1.5 g/L sodium bicarbonate, 4.5 g/L glucose, 10 mM HEPES, 1 mM sodium pyruvate, and 10% FBS. Cells were grown under 5% CO2/95% air, 100% humidity at 37° C. and subcultured twice weekly at 1:6 (cells were cultured at a density range of 1×10^5 to 2×10^6 cells/mL) and harvested at 1×10^6 cells/mL. Prior to assay, cells are treated overnight with 0.5 mM of cyclic AMP (Sigma, OH) and washed once prior to use. cAMP treated U937 cells can be used in C5aR ligand binding and functional assays.
# Optionally, compounds may be further assayed for their ability to inhibit chemotaxis in cells. Chemotaxis assays are performed using 5 μm pore polycarbonate, polyvinylpyrrolidone-coated filters in 96-well chemotaxis chambers (Neuroprobe; Gaithersburg, Md.) using chemotaxis buffer (Hank's balanced salt solution (HBSS) and 1% FBS). C5aR ligands (i.e., C5a, R&D Systems; Minneapolis, Minn.) are use to evaluate compound mediated inhibition of C5aR mediated migration. Other chemokines (i.e., SDF-1α; R&D Systems; Minneapolis, Minn.) are used as specificity controls. The lower chamber is loaded with 29 μl of chemokine (i.e., 0.03 nM C5a) and varying amounts of compound; the top chamber contains 100,000 U937 or neutrophil cells in 20 μl. The chambers are incubated 1.5 hours at 37° C., and the number of cells in the lower chamber quantified either by direct cell counts in five high powered fields per well or by the CyQuant assay (Molecular Probes), a fluorescent dye method that measures nucleic acid content and microscopic observation.
# The compounds in Table 1, below, were prepared using the methods described above. Characterization data is provided for each compound listed. Activity is provided as follows for the chemotaxis assay using U937 cells as described herein (Example 12): +, 500 nM<IC50; ++, 50 nM<IC50≤500 nM; +++, 5 nM<IC50≤50 nM; and ++++, IC50≤5 nM.
# Sequence of C5aR (P21730 whole entry): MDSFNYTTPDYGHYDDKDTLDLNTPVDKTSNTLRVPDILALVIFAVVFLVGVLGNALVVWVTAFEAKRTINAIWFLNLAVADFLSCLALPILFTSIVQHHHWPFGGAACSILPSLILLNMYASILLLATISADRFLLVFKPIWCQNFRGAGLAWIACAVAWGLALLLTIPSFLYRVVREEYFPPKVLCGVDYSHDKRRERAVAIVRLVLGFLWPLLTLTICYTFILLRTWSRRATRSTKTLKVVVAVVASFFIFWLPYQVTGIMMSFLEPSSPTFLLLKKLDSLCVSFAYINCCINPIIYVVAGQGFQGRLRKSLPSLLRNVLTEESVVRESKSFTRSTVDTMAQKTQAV
row,SMILES,IC50
1,CC[C@@H](c1ccccc1)N1CCc2nn(-c3c(C)cccc3C)c(-c3cc(F)c(NC(N)=O)cc3F)c2C1 [Example 1.092],≤ 5 nM
2,CCc1cccc(CC)c1-n1nc2c(c1-c1cc(F)c(NC(N)=O)cc1OC)CN(c1ncc(Cl)cc1Cl)CC2 [Example 1.147],≤ 5 nM
3,CCc1cccc(CC)c1-n1nc2c(c1-c1cc(F)c(NC(N)=O)cc1F)CN(Cc1cc(Cl)ccc1Cl)CC2 [Example 1.070],≤ 5 nM
4,CCc1cccc(CC)c1-n1nc2c(c1-c1ccc(NC(N)=O)c(F)c1)CN(C(C)C1CCCCC1)CC2 (stereo not drawn) [Example 1.223],≤ 5 nM
5,Cc1cccc(C)c1-n1nc2c(c1-c1cc(F)c(NC(N)=O)cc1F)CN(c1ncc(C(C)C)cc1F)CC2 [Example 1.165],≤ 5 nM
6,CCc1cccc(CC)c1-n1nc2c(c1-c1cc(F)c(NC(N)=O)cc1F)CN(C(C(=O)OC)c1ccccc1)CC2 (stereo not drawn) [Example 1.148],≤ 5 nM
7,CCc1cccc(CC)c1-n1nc2c(c1-c1ccc(NC(N)=O)c(F)c1)CN(C(C)(C)CC)CC2 [Example 1.221],50 to 500 nM
8,Cc1cccc(C)c1-n1nc2c(c1-c1cc(F)c(N)cc1F)CN(c1ncc(Cl)cc1Cl)CC2 [Example 1.120],> 500 nM
9,Cc1cccc(OCC(C)C)c1-n1nc2c(c1-c1ccc(N)c(Cl)c1)CN(c1ncc(C(F)(F)F)cc1F)CC2 [Example 1.279],5 to 50 nM
10,Cc1cccc(OCC(C)C)c1-n1nc2c(c1-c1ccc(NC(N)=O)c(F)c1Cl)CN(c1ncc(C(F)(F)F)cc1F)CC2 [Example 1.222],≤ 5 nM
11,COCC(c1ccccc1)N1CCc2nn(-c3c(C)cccc3OCC(C)C)c(-c3cc(F)c(NC(N)=O)cc3F)c2C1 (stereo not drawn) [Example 1.131],≤ 5 nM
12,CCc1cccc(CC)c1-n1nc2c(c1-c1cc(F)c(NC(N)=O)cc1F)CN(C(CC)c1ccccc1)CC2 (stereo not drawn) [Example 1.162],≤ 5 nM
13,CC[C@@H](c1ccccc1)N1CCc2nn(-c3c(C)cccc3C)c(-c3ccc(NC(N)=O)cc3F)c2C1 [Example 1.081],5 to 50 nM
14,Cc1cccc(OCC(C)C)c1-n1nc2c(c1-c1ccc(NC(N)=O)c(Cl)c1)CN(c1ncc(C(F)(F)F)cc1F)CC2 [Example 1.275],≤ 5 nM
15,COc1cc(F)c(-c2c3c(nn2-c2c(C)cccc2C)CCN(c2ncc(Cl)cc2Cl)C3)cc1F [Example 1.121],> 500 nM
16,CCc1cccc(CC)c1-n1nc2c(c1-c1cc(F)c(NC(N)=O)cc1F)CN(C(=O)OC(C)(C)C)[C@H](C)C2 [Example 1.025],≤ 5 nM
17,Cc1cccc(C)c1-n1nc2c(c1-c1cc(F)c(NC(N)=O)cc1F)CN(c1ncc(C(C)(C)O)cc1Cl)CC2 [Example 1.104],50 to 500 nM

row,SMILES,IC50
1,CCc1cccc(CC)c1-n1nc2c(c1-c1ccc(NC(N)=O)cc1)CN(CC(C)(C)C(F)(F)F)CC2 [Example 1.285],5 to 50 nM
2,Cc1cc(NC(N)=O)c(F)cc1-c1c2c(nn1-c1c(C)cccc1C)CCN(c1ncc(Cl)cc1Cl)C2 [Example 1.128],≤ 5 nM
3,CCc1cccc(CC)c1-n1nc2c(c1-c1cc(F)c(NC(N)=O)cc1F)CN(C(CC)c1ccccc1C(F)(F)F)CC2 (stereo not drawn) [Example 1.144],≤ 5 nM
4,Cc1cccc(OCC(C)C)c1-n1nc2c(c1-c1cc(F)c(NC(N)=O)cc1F)CN(C(C)(C)c1ccccc1)CC2 [Example 1.207],≤ 5 nM
5,CCc1cccc(CC)c1-n1nc2c(c1-c1ccc(NC(N)=O)cc1)CN(Cc1ccc(Cl)cc1C(F)(F)F)CC2 [Example 1.278],5 to 50 nM
6,Cc1cc(-c2c3c(nn2-c2c(C)cccc2OCC(C)C)CCN(c2ncc(C(F)(F)F)cc2F)C3)cc(C)c1NC(N)=O [Example 1.266],> 500 nM
7,CCc1cccc(CC)c1-n1nc2c(c1-c1ccc(NC(N)=O)cc1)CN(CC(C)(C)C)CC2 [Example 1.282],5 to 50 nM
8,Cc1cc(-c2c3c(nn2-c2c(C)cccc2C)CCN(c2ncc(Cl)cc2Cl)C3)c(F)cc1NC(N)=O [Example 1.097],≤ 5 nM
9,CCc1cccc(CC)c1-n1nc2c(c1-c1cc(F)c(NC(N)=O)cc1F)CN(C(=O)c1ccnn1C)C(C)(C)C2 [Example 1.005],5 to 50 nM
10,Cc1cccc(OCC(C)C)c1-n1nc2c(c1-c1ccc(NC(N)=O)c(F)c1)CN(c1nccn3ccnc13)CC2 [Example 1.245],5 to 50 nM
11,Cc1cc(NC(N)=O)ccc1-c1c2c(nn1-c1c(C)cccc1OCC(C)C)CCN(c1ncc(C(F)(F)F)cc1F)C2 [Example 1.268],5 to 50 nM
12,Cc1cnc(N2CCc3nn(-c4c(C)cccc4OCC(C)C)c(-c4ccc(NC(N)=O)cc4)c3C2)c(C(F)(F)F)c1 [Example 1.296],≤ 5 nM
13,Cc1cccc(OCC(C)C)c1-n1nc2c(c1-c1cc(F)c(NC(N)=O)cc1F)CN(c1ncc(F)cn1)CC2 [Example 1.159],≤ 5 nM
14,CCc1cccc(CC)c1-n1nc2c(c1-c1cc(F)c(NC(N)=O)cc1F)CN(CCCC(F)(F)F)C(C)(C)C2 [Example 1.008],≤ 5 nM
15,Cc1cccc(OCC(C)C)c1-n1nc2c(c1-c1cc(F)c(NC(N)=O)cc1F)CN(c1ncnc3cc[nH]c13)CC2 [Example 1.140],> 500 nM
16,Cc1cccc(OCC(C)C)c1-n1nc2c(c1-c1ccc(NC(N)=O)c(F)c1)CN(C(c1ccccc1)C(F)(F)F)CC2 (stereo not drawn) [Example 1.225],≤ 5 nM
17,Cc1cccc(OCC(C)C)c1-n1nc2c(c1-c1ccc(NC(N)=O)c(F)c1)CN(S(=O)(=O)c1ccccc1C(F)(F)F)CC2 [Example 1.229],5 to 50 nM

# Now from value to molecule:
row,IC50,SMILES
1,≤ 5 nM,Cc1cccc(OCC(C)C)c1-n1nc2c(c1-c1ccc(NC(N)=O)cc1)CN(c1ncc(F)cc1C(F)(F)F)CC2 [Example 1.322]
2,≤ 5 nM,Cc1cc(C)c(CN2CCc3nn(-c4c(C)cccc4OCC(C)C)c(-c4ccc(NC(N)=O)cc4)c3C2)c(C)c1 [Example 1.365]
3,50 to 500 nM,Cc1cccc(OCC(C)C)c1-n1nc2c(c1-c1ccc(NC(N)=O)cc1)CN(CCC(C)(C)C)CC2 [Example 1.393]
4,50 to 500 nM,COc1cccc(C)c1-n1nc2c(c1-c1ccc(N)cc1)CN(c1ccccc1C)CC2 [Example 1.491]
5,≤ 5 nM,Cc1cccc(OCC(C)C)c1-n1nc2c(c1-c1ccc(NC(N)=O)cc1)CN(c1ccc(C(F)(F)F)cc1C(F)(F)F)CC2 [Example 1.343]
6,5 to 50 nM,Cc1cccc(OCC(C)C)c1-n1nc2c(c1-c1ccc(NC(N)=O)cc1)CN(c1ncc(C(F)(F)F)cc1Cl)CC2 [Example 1.353]
7,≤ 5 nM,Cc1cccc(OCC(C)C)c1-n1nc2c(c1-c1ccc(NC(N)=O)cc1)CN(Cc1c(F)cc(C(F)(F)F)cc1C(F)(F)F)CC2 [Example 1.334]
8,5 to 50 nM,Cc1cccc(OCC(C)C)c1-n1nc2c(c1-c1ccc(NC(N)=O)cc1)CN(CC(C)C(F)(F)F)CC2 (stereo not drawn) [Example 1.391]
9,50 to 500 nM,Cc1cc(C(N)=O)ccc1-c1c2c(nn1-c1c(C)cccc1OCC(C)C)CCN(c1cc(C(C)(C)C)ccc1C)C2 [Example 1.443]
10,5 to 50 nM,Cc1cccc(OCC(C)C)c1-n1nc2c(c1-c1ccc(NC(N)=O)cc1)CN(Cc1c(F)cccc1Cl)CC2 [Example 1.350]
11,≤ 5 nM,Cc1ccc(N2CCc3nn(-c4c(C)cccc4OCC(C)C)c(-c4ccc(NC(N)=O)cc4)c3C2)c(C(F)(F)F)c1 [Example 1.321]
12,> 500 nM,Cc1cccc(OCC(C)C)c1-n1nc2c(c1-c1ccc(NC(N)=O)cc1)CN(CC(C)(C)O)CC2 [Example 1.389]
13,> 500 nM,Cc1ccc(C(C)(C)C)cc1N1CCc2nn(-c3ccccc3C(C)C)c(-c3ccc(N(C)C(N)=O)cc3)c2C1 [Example 1.402]
14,≤ 5 nM,Cc1cccc(OCC(C)C)c1-n1nc2c(c1-c1ccc(NC(N)=O)cc1)CN(Cc1ccc(Cl)cc1C(F)(F)F)CC2 [Example 1.327]
15,5 to 50 nM,Cc1ccc(C(C)(C)C)cc1N1CCc2nn(-c3c(C)cccc3OCC(C)C)c(-c3ccc(C(N)=O)cc3)c2C1 [Example 1.445]
16,> 500 nM,CC(C)c1ccccc1-n1nc2c(c1-c1ccc(NC(N)=O)cc1)CN(C(=O)OC(C)(C)C)CC2 [Example 1.416]
17,≤ 5 nM,Cc1cccc(F)c1CN1CCc2nn(-c3c(C)cccc3OCC(C)C)c(-c3ccc(NC(N)=O)cc3)c2C1 [Example 1.360]
18,5 to 50 nM,Cc1cccc(OCC(C)C)c1-n1nc2c(c1-c1ccc(NC(N)=O)cc1)CN(C(C)c1cccc(C(F)(F)F)c1)CC2 (stereo not drawn) [Example 1.314]
19,5 to 50 nM,Cc1cccc(OCC(C)C)c1-n1nc2c(c1-c1ccc(NC(N)=O)cc1)CN(CC(C)(C)C(F)(F)F)CC2 [Example 1.373]
20,5 to 50 nM,Cc1cccc(CCC(C)C)c1-n1nc2c(c1-c1ccc(NC(N)=O)cc1)CN(c1ncc(C(F)(F)F)cc1F)CC2 [Example 1.311]
21,≤ 5 nM,Cc1cccc(OCC(C)C)c1-n1nc2c(c1-c1ccc(NC(N)=O)cc1)CN(C(C)c1ccccc1C(F)(F)F)CC2 (stereo not drawn) [Example 1.330]
22,50 to 500 nM,Cc1cccc(F)c1-n1nc2c(c1-c1ccc(N)cc1)CN(c1ccccc1C(C)C)CC2 [Example 1.464]
23,≤ 5 nM,Cc1cccc(Cl)c1CN1CCc2nn(-c3c(C)cccc3OCC(C)C)c(-c3ccc(NC(N)=O)cc3)c2C1 [Example 1.359]
